Assay results: ChEMBL document CHEMBL3751836, “Novel peptidomimetics related to gonadotropin-releasing hormone (GnRH)” (Medchemcomm, 2015)
The source made the active and inactive calls. The calls are words filed in the database; no cut-off is given here.

Key:
[1] = biological target: T1, Gonadotropin-releasing hormone receptor (Homo sapiens) (UniProt P30968); experiment: (§1) Displacement of [125I]-DTyr6-His5-GnRH from human type 1 GnRH receptor expressed in HEK293 cell membranes after 16 to 19 hrs by gamma counting analysis
T1 sequence (whole entry): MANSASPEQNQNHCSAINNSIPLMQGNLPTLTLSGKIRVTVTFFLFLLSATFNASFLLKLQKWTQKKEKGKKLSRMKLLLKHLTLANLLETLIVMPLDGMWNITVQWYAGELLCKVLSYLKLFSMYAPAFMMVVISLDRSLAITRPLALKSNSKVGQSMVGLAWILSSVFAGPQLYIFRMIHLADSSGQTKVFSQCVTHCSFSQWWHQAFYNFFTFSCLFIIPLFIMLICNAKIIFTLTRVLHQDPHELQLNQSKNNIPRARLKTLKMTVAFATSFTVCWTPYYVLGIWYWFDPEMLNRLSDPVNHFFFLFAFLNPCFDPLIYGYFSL

[2] = biological target: T2, Gonadotropin-releasing hormone receptor (Homo sapiens, UniProt P30968); experiment: as §1
T2 sequence (P30968 whole entry): T1 sequence (whole entry)

[3] = Metabolic stability in rat plasma assessed as half life at 100 uM by HPLC/mass spectrometric analysis; assay type: ADME, cell-free
[4] = Metabolic stability in rat plasma at 100 uM after 4 hrs by HPLC/mass spectrometric analysis relative to GnRH1; assay type: ADME, cell-free; settings: read-out: Stability
HEK293 = experiment: Antiproliferative activity against HEK293 cells expressing human type 1 GnRH receptor at 1 uM after 4 days by MTT assay; assay type: functional, cell-based
[5] = Metabolic stability in rat plasma at 100 uM after 4 hrs by HPLC/mass spectrometric analysis relative to GnRH2; assay type: ADME, cell-free; settings: read-out: Stability

SMILES | Activity [1] | IC50 [2] [nM] | half-life at 100 µM [3] [h] | remaining at 4 h, 100 µM [4] [%] | Activity (HEK293) | remaining at 4 h, 100 µM [5] [%]
CC(C)C[C@H](NC(=O)CN1CN(c2ccccc2)C2(CCN(C(=O)[C@H](Cc3c[nH]c4ccccc34)NC(=O)[C@H](Cc3c[nH]cn3)NC(=O)[C@@H]3CCC(=O)N3)CC2)C1=O)C(=O)N[C@@H](CCCNC(=N)N)C(=O)N1CCC[C@H]1C(=O)NCC(N)=O | Dose-dependent effect | 724 |  |  |  | 
CC(C)C[C@H](NC(=O)CNC(=O)[C@H](Cc1ccc(O)cc1)NC(=O)[C@H](CO)NC(=O)[C@H](Cc1c[nH]c2ccccc12)NC(=O)[C@H](Cc1cnc[nH]1)NC(=O)[C@@H]1CCC(=O)N1)C(=O)N[C@@H](CCCNC(=N)N)C(=O)N1CCC[C@H]1C(=O)NCC(N)=O [GONADORELIN] |  |  | 2.63 |  |  | 
NC(=O)CNC(=O)[C@H]1CCCN1C(=O)[C@H](Cc1ccc(O)cc1)NC(=O)[C@H](Cc1c[nH]c2ccccc12)NC(=O)C1(NC(=O)[C@@H](Cc2cnc[nH]2)NC(=O)[C@@H](CO)NC(=O)[C@@H](Cc2c[nH]c3ccccc23)NC(=O)[C@@H](Cc2c[nH]cn2)NC(=O)[C@H]2CCC(=O)N2)CCC1 | Dose-dependent effect | 191 |  |  |  | 
CC(C)C[C@H](NC(=O)C1(NC(=O)[C@H](Cc2ccc(O)cc2)NC(=O)[C@H](CO)NC(=O)[C@H](Cc2c[nH]c3ccccc23)NC(=O)[C@H](Cc2c[nH]cn2)NC(=O)[C@@H]2CCC(=O)N2)CCCC1)C(=O)N[C@@H](CCCNC(=N)N)C(=O)N1CCC[C@H]1C(=O)NCC(N)=O | Dose-dependent effect | 589 |  |  |  | 
CC(C)C[C@H](NC(=O)C1(NC(=O)[C@H](Cc2ccc(O)cc2)NC(=O)[C@H](CO)NC(=O)[C@H](Cc2c[nH]c3ccccc23)NC(=O)[C@H](Cc2c[nH]cn2)NC(=O)[C@@H]2CCC(=O)N2)CCCCC1)C(=O)N[C@@H](CCCNC(=N)N)C(=O)N1CCC[C@H]1C(=O)NCC(N)=O | Dose-dependent effect | 550 | 3.96 | 15 |  | 
NC(=O)CNC(=O)[C@@H]1CCCN1C(=O)[C@@H](Cc1ccc(O)cc1)NC(=O)[C@@H](Cc1c[nH]c2ccccc12)NC(=O)C1(NC(=O)[C@H](Cc2cnc[nH]2)NC(=O)[C@H](CO)NC(=O)[C@H](Cc2c[nH]c3ccccc23)NC(=O)[C@H](Cc2c[nH]cn2)NC(=O)[C@@H]2CCC(=O)N2)CCCCC1 | Dose-dependent effect | 407 |  |  | Active | 15
NC(=O)CNC(=O)[C@H]1CCCN1C(=O)[C@H](Cc1ccc(O)cc1)NC(=O)[C@H](Cc1c[nH]c2ccccc12)NC(=O)C1(NC(=O)[C@@H](Cc2cnc[nH]2)NC(=O)[C@@H](CO)NC(=O)[C@@H](Cc2c[nH]c3ccccc23)NC(=O)[C@@H](Cc2c[nH]cn2)NC(=O)[C@H]2CCC(=O)N2)CCCC1 | Dose-dependent effect | 282 |  |  |  | 
CCNC(=O)[C@@H]1CCCN1C(=O)[C@H](CCCNC(=N)N)NC(=O)[C@H](CC(C)C)NC(=O)[C@@H](CC(C)C)NC(=O)[C@H](Cc1ccc(O)cc1)NC(=O)[C@H](CO)NC(=O)[C@H](Cc1c[nH]c2ccccc12)NC(=O)[C@H](Cc1c[nH]cn1)NC(=O)[C@@H]1CCC(=O)N1 |  |  |  |  | Active | 
